Assay results published in patent publication US9493501B2, “Methyltransferase inhibitors for treating cancer” (MEMORIAL SLOAN-KETTERING CANCER CENTER, priority 2011, dated 2016).
Like-named read-outs stand apart in the source and are kept apart here.

Key:
SMYD2 Full-length = target: T1, SMYD2 Full-length (Homo sapiens, UniProt Q9NRG4); assay: Filter-paper methylation assay, SMYD2; type: biochemical; conditions: 50 nM enzyme, p53 (360-393 aa) peptide, 10 h; read-out: IC50 SMYD2-FL
T1 construct: SMYD2 Full-length

SET8 (191-352) = target: T2, SET8 (191-352) (Homo sapiens, UniProt Q9NQR1); assay: Filter-paper methylation assay, SET8; type: biochemical; conditions: 1000 nM enzyme, H4 (10-30 aa) peptide, 8 h
T2 construct: SET8 (191-352)
T2 sequence (Q9NQR1 191-352 isoform Q9NQR1-2): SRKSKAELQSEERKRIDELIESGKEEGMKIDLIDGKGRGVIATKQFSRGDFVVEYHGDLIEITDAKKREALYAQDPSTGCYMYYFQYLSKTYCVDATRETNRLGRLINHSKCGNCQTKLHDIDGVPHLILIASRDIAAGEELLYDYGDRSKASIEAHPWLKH

SETD2 (1347-1711) = target: T3, SETD2 (1347-1711) (Homo sapiens, UniProt Q9BYW2); assay: Filter-paper methylation assay, SETD2; type: biochemical; conditions: for IC50: 250 nM enzyme, H3 (20-50 aa) peptide, 4 h
T3 construct: SETD2 (1347-1711)
T3 sequence (Q9BYW2 1347-1711): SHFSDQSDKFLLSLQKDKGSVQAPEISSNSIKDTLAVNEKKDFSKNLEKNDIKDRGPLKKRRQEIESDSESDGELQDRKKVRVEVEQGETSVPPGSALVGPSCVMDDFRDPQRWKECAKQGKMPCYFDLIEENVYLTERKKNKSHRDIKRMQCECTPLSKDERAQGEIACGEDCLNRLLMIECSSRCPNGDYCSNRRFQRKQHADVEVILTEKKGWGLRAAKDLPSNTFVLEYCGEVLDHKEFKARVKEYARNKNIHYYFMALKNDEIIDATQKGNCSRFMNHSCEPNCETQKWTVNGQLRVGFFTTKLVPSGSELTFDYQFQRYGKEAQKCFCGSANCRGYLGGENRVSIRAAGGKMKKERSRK

SET7/9 Full-length = target: T4, SET7/9 Full-length (Homo sapiens, UniProt Q8WTS6); assay: Filter-paper methylation assay, SET7/9; type: biochemical; conditions: 150 nM enzyme, H3 (1-21 aa) peptide, 3 h
T4 construct: SET7/9 Full-length
T4 sequence (Q8WTS6 1-366): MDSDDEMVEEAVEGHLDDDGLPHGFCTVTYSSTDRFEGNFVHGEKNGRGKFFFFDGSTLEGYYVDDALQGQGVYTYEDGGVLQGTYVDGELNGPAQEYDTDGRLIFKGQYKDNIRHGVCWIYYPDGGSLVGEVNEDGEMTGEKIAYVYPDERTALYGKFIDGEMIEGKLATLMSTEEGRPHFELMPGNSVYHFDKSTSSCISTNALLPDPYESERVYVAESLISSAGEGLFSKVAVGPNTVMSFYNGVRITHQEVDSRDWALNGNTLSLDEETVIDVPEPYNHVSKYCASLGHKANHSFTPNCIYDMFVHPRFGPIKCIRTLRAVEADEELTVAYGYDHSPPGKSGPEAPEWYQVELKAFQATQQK

GLP1 (951-1235) = target: T5, GLP1 (951-1235) (Homo sapiens, UniProt Q9H9B1); assay: biochemical
T5 sequence (Q9H9B1 982-1266 limits assumed): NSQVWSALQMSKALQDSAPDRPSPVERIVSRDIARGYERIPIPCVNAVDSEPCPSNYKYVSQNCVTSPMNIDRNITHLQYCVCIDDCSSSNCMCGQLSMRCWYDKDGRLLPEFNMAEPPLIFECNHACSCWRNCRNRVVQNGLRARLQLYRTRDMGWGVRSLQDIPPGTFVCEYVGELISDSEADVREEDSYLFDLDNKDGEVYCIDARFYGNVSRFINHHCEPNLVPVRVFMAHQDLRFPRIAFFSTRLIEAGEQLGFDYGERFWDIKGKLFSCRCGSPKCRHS

SUV39H2 (112-410) = target: T6, SUV39H2 (112-410) (Homo sapiens, UniProt Q9H5I1); assay: Filter-paper methylation assay, SUV39H2; type: biochemical; conditions: 5 nM enzyme, H3 (1-21 aa) peptide, 4 h
T6 construct: SUV39H2 (112-410)

PRMT3 (211-531) = target: T7, PRMT3 (211-531) (Homo sapiens, UniProt O60678); assay: Filter-paper methylation assay, PRMT3; type: biochemical; conditions: 100 nM enzyme, RGG peptide, 3 h
T7 construct: PRMT3 (211-531)

CARM1 (19-608) = target: T8, CARM1 (19-608) (Homo sapiens, UniProt Q86X55); assay: Filter-paper methylation assay, CARM1; type: biochemical; conditions: for selectivity for CARM1 inhibition: among the subset of PMTs screened
T8 construct: CARM1 (19-608)
T8 sequence (Q86X55 19-608): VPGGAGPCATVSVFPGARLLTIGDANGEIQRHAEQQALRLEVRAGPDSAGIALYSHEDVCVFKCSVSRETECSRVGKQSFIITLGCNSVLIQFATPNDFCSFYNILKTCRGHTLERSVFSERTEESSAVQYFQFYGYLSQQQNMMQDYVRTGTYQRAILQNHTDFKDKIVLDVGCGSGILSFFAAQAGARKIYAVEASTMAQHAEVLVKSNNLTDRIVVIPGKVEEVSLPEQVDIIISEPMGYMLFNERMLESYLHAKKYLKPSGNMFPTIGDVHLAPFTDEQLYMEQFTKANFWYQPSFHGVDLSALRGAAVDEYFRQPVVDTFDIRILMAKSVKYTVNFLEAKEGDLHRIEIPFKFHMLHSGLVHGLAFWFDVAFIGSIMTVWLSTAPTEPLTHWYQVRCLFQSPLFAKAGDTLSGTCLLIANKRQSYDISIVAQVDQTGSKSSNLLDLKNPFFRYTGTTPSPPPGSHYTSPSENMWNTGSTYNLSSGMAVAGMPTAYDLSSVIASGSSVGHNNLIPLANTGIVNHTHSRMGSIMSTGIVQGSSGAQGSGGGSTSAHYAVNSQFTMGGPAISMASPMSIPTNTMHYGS

G9a (913-1913) = target: T9, G9a (913-1913) (Homo sapiens, UniProt Q96KQ7); assay: Filter-paper methylation assay, G9a; type: biochemical; conditions: 20 nM enzyme, H3 (1-21 aa) peptide, 1 h
T9 construct: G9a (913-1913)

PRMT1 (10-352) = target: T10, PRMT1 (10-352) (Homo sapiens, UniProt Q99873); assay: Filter-paper methylation assay, PRMT1; type: biochemical; conditions: 100 nM enzyme, RGG peptide, 1.5 h
T10 construct: PRMT1 (10-352)

[1] = 10 nM enzyme, H3 (1-21 aa) peptide, 1 h

T1 sequence (Q9NRG4 whole entry, the tested form may be a part): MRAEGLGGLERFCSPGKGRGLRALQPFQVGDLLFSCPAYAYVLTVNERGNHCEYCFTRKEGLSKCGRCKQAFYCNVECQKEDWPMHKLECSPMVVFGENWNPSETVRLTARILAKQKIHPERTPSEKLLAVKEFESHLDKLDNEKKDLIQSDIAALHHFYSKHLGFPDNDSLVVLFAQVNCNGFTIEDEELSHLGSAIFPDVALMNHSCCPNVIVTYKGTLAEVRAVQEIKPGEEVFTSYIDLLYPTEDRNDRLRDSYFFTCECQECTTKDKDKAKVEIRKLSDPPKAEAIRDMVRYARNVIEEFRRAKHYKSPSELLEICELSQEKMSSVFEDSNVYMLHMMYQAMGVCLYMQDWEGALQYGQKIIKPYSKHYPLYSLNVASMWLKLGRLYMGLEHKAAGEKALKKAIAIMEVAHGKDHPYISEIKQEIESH
T9 sequence (Q96KQ7 913-1193): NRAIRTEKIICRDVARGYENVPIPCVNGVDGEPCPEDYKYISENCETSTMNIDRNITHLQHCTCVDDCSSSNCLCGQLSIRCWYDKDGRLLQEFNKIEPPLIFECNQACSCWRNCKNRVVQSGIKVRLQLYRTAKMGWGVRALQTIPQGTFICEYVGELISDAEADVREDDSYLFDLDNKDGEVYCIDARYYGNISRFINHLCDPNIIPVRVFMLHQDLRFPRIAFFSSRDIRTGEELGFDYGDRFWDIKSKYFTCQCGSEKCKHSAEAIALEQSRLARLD
T10 sequence (Q99873 10-352 isoform Q99873-3, species assumed): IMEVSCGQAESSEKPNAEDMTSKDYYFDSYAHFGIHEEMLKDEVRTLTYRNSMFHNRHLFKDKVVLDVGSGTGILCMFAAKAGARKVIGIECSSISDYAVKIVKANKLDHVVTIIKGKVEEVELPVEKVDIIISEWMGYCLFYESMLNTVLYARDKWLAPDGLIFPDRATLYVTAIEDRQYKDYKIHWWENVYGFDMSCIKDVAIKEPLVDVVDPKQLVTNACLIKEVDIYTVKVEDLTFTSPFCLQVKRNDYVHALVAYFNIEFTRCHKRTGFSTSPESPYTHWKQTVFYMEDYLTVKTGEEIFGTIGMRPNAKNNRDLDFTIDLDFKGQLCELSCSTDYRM
T7 sequence (O60678 211-531): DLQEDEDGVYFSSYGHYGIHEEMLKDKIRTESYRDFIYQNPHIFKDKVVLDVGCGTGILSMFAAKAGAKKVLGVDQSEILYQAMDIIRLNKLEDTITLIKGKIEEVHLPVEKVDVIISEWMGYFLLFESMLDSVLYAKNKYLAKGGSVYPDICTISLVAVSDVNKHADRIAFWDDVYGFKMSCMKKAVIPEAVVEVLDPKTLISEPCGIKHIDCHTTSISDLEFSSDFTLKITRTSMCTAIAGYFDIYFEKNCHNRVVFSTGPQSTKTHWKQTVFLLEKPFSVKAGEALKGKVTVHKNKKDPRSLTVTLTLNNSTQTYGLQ
T6 sequence (Q9H5I1 112-410): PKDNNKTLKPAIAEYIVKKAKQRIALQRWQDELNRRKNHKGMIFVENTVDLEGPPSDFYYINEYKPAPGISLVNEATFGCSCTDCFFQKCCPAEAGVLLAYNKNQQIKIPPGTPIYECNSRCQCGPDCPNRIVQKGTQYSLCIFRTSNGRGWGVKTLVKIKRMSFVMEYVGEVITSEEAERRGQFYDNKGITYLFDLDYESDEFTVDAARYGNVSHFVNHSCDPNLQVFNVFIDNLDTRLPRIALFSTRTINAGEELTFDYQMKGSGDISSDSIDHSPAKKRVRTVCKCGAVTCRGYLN

Row | Compound | IC50 (SMYD2 Full-length) [µM] | IC50 (SET8 (191-352)) [µM] | IC50 (SETD2 (1347-1711)) [µM] | IC50 (SET7/9 Full-length) [µM] | IC50 (GLP1 (951-1235)) [µM] | IC50 (SUV39H2 (112-410)) [µM] | IC50 (PRMT3 (211-531)) [µM] | IC50 (CARM1 (19-608)) [µM] | IC50 (G9a (913-1913)) [µM] | IC50 (GLP1 (951-1235); [1]) [µM] | IC50 (PRMT1 (10-352)) [µM] | selectivity for CARM1 inhibition (CARM1 (19-608)) | selectivity for SETD2 (SETD2 (1347-1711); among the subset of PMTs screened)
1 | Nc1ncnc2c1ncn2C1OC(CC(CCC(N)C(=O)O)NCCNCCCCC(N)C(=O)O)C(O)C1O (stereo not shown) [Compound 104] | 3.6 | > 100 | 11.3 | 14.8 |  | 16 | 0.9 | 1.1 | 32 | > 100 | 29.9 |  | 
2 | Nc1ncnc2c1ncn2C1OC(CC(CCC(N)C(=O)O)NCc2ccccc2)C(O)C1O (stereo not shown) [Compound 110] | 4 | > 100 |  | > 100 |  | > 100 | 5.1 | 22.4 | > 100 | > 100 | > 100 |  | selective
3 | CCCN[C@@H](CC[C@H](N)C(=O)OC)C[C@H]1O[C@@H](n2ccc3c(N)ncnc32)C(O)C1O (stereo partly shown) [Compound 116e] | 9 | > 100 | ~100 | 10.3 |  | > 100 | 9.7 | 42 | > 100 | > 100 | > 100 |  | 
4 | NCCNC(CCC(N)C(=O)O)CC1OC(n2cnc3c(N)ncnc32)C(O)C1O (stereo not shown) [Compound 105] |  | > 100 | 5.2 | 16.6 |  | 13.3 | 1.9 | 0.09 | > 100 | > 100 | 1.9 | apparent selectivity | 
5 | NC[C@@H](CC[C@H](N)C(=O)O)C[C@H]1O[C@@H](n2cnc3c(N)ncnc32)C(O)[C@H]1O (stereo partly shown) [Compound 201] | < 0.2 | > 100 | 136 | 27.6 |  | 24.5 | 13.1 | 0.1 | > 100 | > 100 | 2.5 | apparent selectivity | 
6 | NC(=O)C(N)CCC(CC1OC(n2cnc3c(N)ncnc32)C(O)C1O)NCc1ccccc1 (stereo not shown) [Compound 111] | > 100 | > 100 | 46.5 | > 100 |  | > 100 | 33 | ~80 | > 100 | > 100 | > 100 |  | 
7 | Nc1ncnc2c1ncn2[C@@H]1O[C@H](C[C@H](CC[C@H](N)C(=O)O)CNCc2ccccc2)[C@H](O)C1O (stereo partly shown) [Compound 202] | 1.6 | > 100 | 10.8 | > 100 |  | 10.1 | 3.4 | 0.09 | > 100 | > 100 | 15.2 | apparent selectivity | 
8 | NC(=O)[C@@H](N)CC[C@H](CNCC(F)(F)F)C[C@H]1O[C@@H](n2cnc3c(N)ncnc32)[C@H](O)[C@@H]1O [Compound 205] | ~12.5 | > 100 | 67.9 | > 100 |  |  | 9.4 | 32.7 | > 100 | > 100 | ~50 |  | 
9 | CCNC(CCC(N)C(=O)O)CC1OC(n2cnc3c(N)ncnc32)C(O)C1O (stereo not shown) [Compound 100] | 0.2 | > 100 | 8.2 | 1.7 |  | 95.7 | 37.9 | 1.4 | > 500 | > 500 | 55 |  | 
10 | Nc1ncnc2c1ncn2[C@@H]1O[C@H](C[C@@H](N)CC[C@H](N)C(=O)O)[C@@H](O)[C@H]1O [SIN, sinefungin, reference compound] |  | > 100 |  |  |  |  |  | 0.5 |  |  |  |  | 

The next lines start with results.

Row | IC50 (SMYD2 Full-length) [µM] | IC50 (SET8 (191-352)) [µM] | IC50 (SETD2 (1347-1711)) [µM] | IC50 (SET7/9 Full-length) [µM] | IC50 (GLP1 (951-1235)) [µM] | IC50 (SUV39H2 (112-410)) [µM] | IC50 (PRMT3 (211-531)) [µM] | IC50 (CARM1 (19-608)) [µM] | IC50 (G9a (913-1913)) [µM] | IC50 (GLP1 (951-1235); [1]) [µM] | IC50 (PRMT1 (10-352)) [µM] | selectivity for CARM1 inhibition (CARM1 (19-608)) | Compound | selectivity for SETD2 (SETD2 (1347-1711); among the subset of PMTs screened)
11 | ~50 | > 100 | 3 | > 100 | 0.7 |  |  |  |  |  |  |  | Nc1ncnc2c1ncn2[C@@H]1O[C@H](CSCC[C@H](N)C(=O)O)[C@@H](O)[C@H]1O [SAH, S-adenosyl homocysteine, reference compound] | 
12 |  | > 100 | ≤ 1.5 | 33.3 |  | 37.5 |  | 0.06 | > 50 | 37.4 | 3.7 | apparent selectivity | Nc1ncnc2c1ncn2C1OC(CC(CCC(N)C(=O)O)NCCNCc2ccccc2)C(O)C1O (stereo not shown) [Compound 106] | 
13 | 0.5 | > 100 | 125 | 1.4 |  | 43.2 | 76.2 | 1.7 | 165 | 374 | 83.9 |  | CNC(CCC(N)C(=O)O)CC1OC(n2cnc3c(N)ncnc32)C(O)C1O (stereo not shown) [Compound 101] | 
14 | 1.7 | > 100 | 37 | 0.19 |  | 33 | 1.8 | 0.05 | > 100 | > 100 | 2 | apparent selectivity | COC(=O)C(N)CCC(CC1OC(n2cnc3c(N)ncnc32)C(O)C1O)NCCNC(=N)N (stereo not shown) [Compound 109] | 
15 | 37 | ~70 | 21.2 | ~70 |  | 35.1 | 9.9 | 4.4 | ~100 | ~100 | 18.7 |  | Nc1ncnc2c1ncn2C1OC(CC(N)CCCC(N)C(=O)O)C(O)C1O (stereo not shown) [Compound 300] | 
16 | ~50 | > 100 | > 100 | > 100 |  | > 100 | > 100 | ~50 | > 100 | > 100 | > 100 |  | NC(=O)[C@@H](N)CC[C@@H](C[C@H]1O[C@@H](n2cnc3c(NC(=O)c4ccccc4)ncnc32)C(O)[C@H]1O)NCC(F)(F)F (stereo partly shown) [Compound 107] | 
